Results on 2 molecules are retold here after paper PMC5318439, “The Novel Toll-Like Receptor 2 Agonist SUP3 Enhances Antigen Presentation and T Cell Activation by Dendritic Cells” (Frontiers in Immunology, 2017).

Where a SMILES comes first, the peptide text is derived from it. The star is where a group is joined. X1 = CCCCCCCCCCCCCCNC(=O)OC[C@H](C*)OC(=O)NCCCCCCCCCCCCCC; Palmitoyl = CCCCCCCCCCCCCCCC(=O)*

One assay relates to splenic CD8^+ cDCs. Description: CD40 and CD86 expression on splenic CD8+ cDCs after i.v. administration. Format: in vivo, mice. The following applies: 2 nmol per mouse i.v., 1 h. The protocol:
Figure 4 SUP3 stimulated maturation of CD8^+ conventional dendritic cells (cDCs). (A) Purified CD8^+ cDCs were treated with SUP3 (200 nM) or Pam3 (200 nM) in the presence of granulocyte-macrophage colony-stimulating factor (GM-CSF) (20 ng/mL) for 24 h. The surface expression of costimulatory and major histocompatibility complex (MHC) molecules were then analyzed by flow cytometry. Representative data from three independent experiments were shown. “Isotype” represented relative isotype antibody staining of Pam3 or SUP3 stimulated cells. (B) SUP3 (2 nmol per mouse), Pam3 (2 nmol per mouse), or PBS were i.v. injected into mice for 1 h. Splenic CD8^+ cDCs were enriched, and surface expression of CD40 and CD86 was analyzed by flow cytometry. Representative data from two independent experiments with three mice for each group were shown. (C) Purified CD8^+ cDCs were treated with SUP3 (200 nM) or Pam3 (200 nM) for indicated periods (0~120 min), and western blot analysis was performed with the cell lysate for phosphorylated p65 (p-p65), IκBα, p-ERK, ERK, p-JNK, JNK, p-p38, and p38. Blot of p38 was also regarded as loading control. (D) Purified CD8^+ cDCs were treated with CpG 1668 (20 nM), SUP3 (200 nM), or Pam3 (200 nM) in the presence of GM-CSF (20 ng/mL). Supernatants were harvested 24 and 48 h post-stimulation, and cytokines were measured by ELISA. […]

In a further assay the test system is splenic B cells. Description: B cell activation markers in vitro. Format: cell-based, mice. As to conditions: 200 nM, 2 × 10^6 cells/mL, 24 h. The source says: Splenic DCs were purified as described previously ([37]). CD8^+ cDCs expanded by B16-Flt3L inoculation were enriched, and then CD8^+ cDCs were positively sorted by MACS technology (Miltenyi Biotec). Splenic B cells were purified through negative selection by Streptavidin-MicroBeads (Miltenyi Biotec 130-048-102) combined with different antibodies cocktail to exclude non-B cells. The antibodies cocktail was composed of biotinylated antibodies against CD4 (T cells and DCs) (eBioscience, clone GK1.5), CD8 (T cells and DCs) (eBioscience, clone 53-6.7), CD43 (T cells, monocytes, granulocytes) (eBioscience, clone eBioR2/60), and Ter119 (erythrocytes) (eBioscience, clone TER119). B cells were further purified through MACS LS column (Miltenyi Biotec 130-042-401).
Figure 7 SUP3 promoted stronger B cell activation in vitro. Purified splenic B cells (2 × 10^6 cells/mL) were treated with SUP3 (200 nM), Pam3 (200 nM), or lipopolysaccharide (LPS) (1.5 µg/mL), respectively. (A) Surface CD25, CD40, and CD86 were stained 24 h post-stimulation. (B) Supernatants were harvested 3 or 5 days post-stimulation, and total IgM in the supernatant was determined by ELISA. Representative data was from two independent experiments with triplicated wells in each group (**p < 0.01).

The test system of a further assay is Tlr2^−/− RAW 264.7 cells. The assay is described as follows: TNFα production by Tlr2−/− RAW 264.7 cells (TLR2 specificity). Format: cell-based. The following applies: 500 nM, 8 h. As to the method: Tlr2^−/− RAW 264.7 cells were generated by lentiviral CRISPR-Cas9 system as described previously ([36]). Briefly, target guide sequences (5′-[…]-3′, 3′-[…]-5′) designed by Genome Engineering 3.0 were ligated into lentiviral vector lentiCRISPR (Addgene 52961). Then lentiCRISPR as well as packaging plasmids pMD2.G (Addgene 12259) and psPax2 (Addgene 12260) were co-transfected into 293FT cells by CaCl2 (12.5 mM) for virus packaging. Fresh cell culture medium was changed 12 h post-transfection. After another 72 h, 293FT cell culture supernatant containing virus was harvested, filtered, and concentrated. Then, RAW 264.7 cells were infected by the virus (~5 × 10^5 TU/mL) with the presence of 8 µg/mL polybrene (Sigma H9268). […]
Splenic DCs (5 × 10^5 cells/mL) were stimulated by Pam3 (200 nM), SUP3 (200 nM), or CpG ODN 1668 (20 nM; Adipogen IAX-200-001) in the GM-CSF (20 ng/mL) supplemented medium for indicated periods. […] Cytokines (IL-6, eBioscience 88-7064; TNFα, eBioscience 88-7324; IL-12p40, BioLegend 431604), chemokine (MIP1α, R&D Systems DY450-05), and total IgM (eBioscience, 88-50470) were quantified by ELISA kits following the instructions of manufacturers.
Figure 1 Specificity and activity of novel TLR2 agonist SUP3. […] The production of cytokines IL-6 and TNFα in culture supernatant was determined by ELISA. *p < 0.05, ****p < 0.0001, “n.s.” indicates statistically non-significant.

As for `CCCCCCCCCCCCCCCC(=O)N[C@@H](CSC[C@@H](COC(=O)NCCCCCCCCCCCCCC)OC(=O)NCCCCCCCCCCCCCC)C(=O)NCC(=O)N[C@@H](CCCCN)C(=O)N[C@@H](CCCCN)C(=O)N[C@@H](CCCCN)C(=O)O` [SUP3, (2S,5S,8S,14R,18R)-2,5,8-tris(4-aminobutyl)-4,7,10,13,21-pentaoxo-14-palmitamido-18-((tetradecylcarbamoyl)oxy)-20-oxa-16-thia-3,6,9,12,22-pentaazahexatriacontan-1-oic acid] (Palmitoyl-C(X1)GKKK-OH), in the assay on splenic CD8^+ cDCs, the “expressions of CD40 and CD86 on splenic CD8+ cDCs in vivo” value is given as “increased”. In addition, the “CD25, CD40, and CD86 on B lymphocytes” value in the assay on splenic B cells is “marked upregulation”. Further, in the assay on Tlr2^−/− RAW 264.7 cells, the “TNFα secretion by Tlr2−/− RAW cells” value is listed as “no secretion of TNFα”.
The corresponding values for Pam3CSK4 [reference compound] are “increased”, “marked upregulation” and “no secretion of TNFα”.
